Columns and labels:
Format in all cases: biochemical
[1] = molecular target: T1, human Tyro3 (Homo sapiens, UniProt Q06418); test: Kinase enzymatic activity assay (33P-radiolabeled phosphate transfer), Tyro3; details: recombinant human Tyro3 (455-end), poly(4:1 glu:tyr) substrate, 30 minutes
T1 construct: GST (N); made in house; host or cells: Sf9 insect cells (baculovirus)
T1 sequence (Q06418 455-890 limits assumed): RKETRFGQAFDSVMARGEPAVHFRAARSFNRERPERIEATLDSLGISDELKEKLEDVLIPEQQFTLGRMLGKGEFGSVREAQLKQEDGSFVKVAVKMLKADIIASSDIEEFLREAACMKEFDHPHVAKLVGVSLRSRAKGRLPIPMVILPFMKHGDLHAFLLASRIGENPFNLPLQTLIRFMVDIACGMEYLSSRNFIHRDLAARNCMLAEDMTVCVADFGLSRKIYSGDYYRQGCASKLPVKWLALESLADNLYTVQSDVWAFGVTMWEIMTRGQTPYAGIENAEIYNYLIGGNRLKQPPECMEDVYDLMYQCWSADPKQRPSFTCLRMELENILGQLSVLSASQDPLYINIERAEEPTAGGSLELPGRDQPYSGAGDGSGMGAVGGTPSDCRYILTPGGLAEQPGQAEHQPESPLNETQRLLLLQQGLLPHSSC
In short: (§1)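 GST-tagged human Tyro3 (455-end), Axl (473-end) and Mer (578-872) from Sf9 cells, with poly(Glu:Tyr) 4:1 substrate, in MOPS pH 7.2 buffer with MgCl2. [33P]-ATP added from a 250 µM cocktail; reaction 30 min at room temperature, filter-captured counts, duplicates. IC50 derived from % inhibition over a compound serial dilution.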

[2] = molecular target: T2, human Axl (Homo sapiens, UniProt P30530); test: Kinase enzymatic activity assay (33P-radiolabeled phosphate transfer), Axl; details: recombinant human Axl (473-end), poly(4:1 glu:tyr) substrate, 30 minutes
T2 construct: GST (N); made in house; host or cells: Sf9 insect cells (baculovirus)
T2 sequence (P30530 473-894 limits assumed): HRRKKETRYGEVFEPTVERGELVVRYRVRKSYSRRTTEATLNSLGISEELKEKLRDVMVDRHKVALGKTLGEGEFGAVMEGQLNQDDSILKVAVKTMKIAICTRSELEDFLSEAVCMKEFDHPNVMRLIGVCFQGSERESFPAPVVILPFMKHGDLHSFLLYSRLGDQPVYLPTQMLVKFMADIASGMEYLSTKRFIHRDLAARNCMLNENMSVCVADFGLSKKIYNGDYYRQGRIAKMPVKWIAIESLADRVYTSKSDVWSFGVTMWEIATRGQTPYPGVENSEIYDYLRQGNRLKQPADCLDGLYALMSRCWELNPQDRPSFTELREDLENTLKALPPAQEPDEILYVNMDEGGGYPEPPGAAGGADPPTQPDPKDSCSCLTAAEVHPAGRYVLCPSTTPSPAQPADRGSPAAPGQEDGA
In short: as §1

[3] = molecular target: T3, human Mer (Homo sapiens, UniProt Q12866); test: Kinase enzymatic activity assay (33P-radiolabeled phosphate transfer), Mer; details: recombinant human Mer (578-872), poly(4:1 glu:tyr) substrate, 30 minutes
T3 construct: GST (N); made in house; host or cells: Sf9 insect cells (baculovirus)
T3 sequence (Q12866 578-872): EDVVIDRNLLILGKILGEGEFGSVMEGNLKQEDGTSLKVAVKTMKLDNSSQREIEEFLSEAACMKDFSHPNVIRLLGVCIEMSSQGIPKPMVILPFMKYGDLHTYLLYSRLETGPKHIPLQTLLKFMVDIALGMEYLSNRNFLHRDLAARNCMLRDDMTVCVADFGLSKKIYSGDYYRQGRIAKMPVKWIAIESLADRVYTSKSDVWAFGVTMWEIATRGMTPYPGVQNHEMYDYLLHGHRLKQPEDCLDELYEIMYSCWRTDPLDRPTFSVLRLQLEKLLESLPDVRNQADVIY
In short: as §1

SMILES: COCCOc1cc(OCCN2CCN(C)CC2)cc2ncnc(Sc3ccc(F)c(Br)c3)c12 [Example 4.5, 4-((3-bromo-4-fluorophenyl)thio)-5-(2-methoxyethoxy)-7-(2-(4-methylpiperazin-1-yl)ethoxy)quinazoline]
- IC50 [1]: < 500 nM
- IC50 [2]: 1000 to 10000 nM
- IC50 [3]: > 10000 nM

SMILES: CN1CCC(COc2cc(OC3CCOCC3)c3c(Oc4ccc(F)cc4Cl)ncnc3c2)CC1 [Example 4.7, 4-(2-chloro-4-fluorophenoxy)-7-((1-methylpiperidin-4-yl)methoxy)-5-((tetrahydro-2H-pyran-4-yl)oxy)quinazoline]
- IC50 [1]: < 500 nM
- IC50 [2]: 500 to 1000 nM
- IC50 [3]: < 500 nM

SMILES: Fc1ccc(Oc2ncnc3cc(OCCCN4CCOCC4)cc(N4CCOCC4)c23)c(Cl)c1 [Example 4.8, 4-(3-((4-(2-chloro-4-fluorophenoxy)-5-morpholinoquinazolin-7-yl)oxy)propyl)morpholine]
- IC50 [1]: 1000 to 10000 nM
- IC50 [2]: > 10000 nM
- IC50 [3]: 1000 to 10000 nM

SMILES: CN1CCN(c2cc(OCCCN3CCOCC3)cc3ncnc(Oc4ccc(F)cc4Cl)c23)CC1 [Example 4.9, 4-(3-((4-(2-chloro-4-fluorophenoxy)-5-(4-methylpiperazin-1-yl)quinazolin-7-yl)oxy)propyl)morpholine]
- IC50 [1]: < 500 nM
- IC50 [2]: > 10000 nM
- IC50 [3]: 1000 to 10000 nM

SMILES: CN1CCC(COc2cc(OC3CCOCC3)c3c(Oc4cccc(C(F)(F)F)c4)ncnc3c2)CC1 [Example 4.10, 7-((1-methylpiperidin-4-yl)methoxy)-5-((tetrahydro-2H-pyran-4-yl)oxy)-4-(3-(trifluoromethyl)phenoxy)quinazoline]
- IC50 [1]: < 500 nM
- IC50 [2]: 500 to 1000 nM
- IC50 [3]: 500 to 1000 nM

SMILES: CN1CCC(COc2cc(OC3CCOCC3)c3c(Oc4ccc(C(F)(F)F)cc4)ncnc3c2)CC1 [Example 4.11, 7-((1-methylpiperidin-4-yl)methoxy)-5-((tetrahydro-2H-pyran-4-yl)oxy)-4-(4-(trifluoromethyl)phenoxy)quinazoline]
- IC50 [1]: < 500 nM
- IC50 [2]: < 500 nM
- IC50 [3]: 500 to 1000 nM

SMILES: OC[C@@H](O)COc1cc(OC2CCOCC2)c2c(Oc3ccc(F)cc3Cl)ncnc2c1 [Example 5, (R)-3-((4-(2-chloro-4-fluorophenoxy)-5-((tetrahydro-2H-pyran-4-yl)oxy)quinazolin-7-yl)oxy)propane-1,2-diol]
- IC50 [1]: 500 to 1000 nM
- IC50 [2]: 1000 to 10000 nM
- IC50 [3]: 500 to 1000 nM

SMILES: CC(C)Oc1ncnc2cc(OCC3CCN(C)CC3)cc(OC3CCOCC3)c12 [Example 6, 4-isopropoxy-7-((1-methylpiperidin-4-yl)methoxy)-5-((tetrahydro-2H-pyran-4-yl)oxy)quinazoline]
- IC50 [1]: < 500 nM
- IC50 [2]: < 500 nM
- IC50 [3]: < 500 nM

SMILES: CCN(CC)CCNc1cc(OC2CCOCC2)c2c(Nc3nc(C(F)(F)F)cs3)ncnc2c1 [Example 7, N^7-(2-(diethylamino)ethyl)-5-((tetrahydro-2H-pyran-4-yl)oxy)-N^4-(4-(trifluoromethyl)thiazol-2-yl)quinazoline-4,7-diamine]
- IC50 [1]: > 10000 nM
- IC50 [2]: 1000 to 10000 nM
- IC50 [3]: > 10000 nM

SMILES: CN1CCC(COc2cc(OC3CCOCC3)c3c(Nc4ncn[nH]4)ncnc3c2)CC1 [Example 8, 7-((1-methylpiperidin-4-yl)methoxy)-5-((tetrahydro-2H-pyran-4-yl)oxy)-N-(1H-1,2,4-triazol-5-yl)quinazolin-4-amine]
- IC50 [1]: > 10000 nM
- IC50 [2]: > 10000 nM
- IC50 [3]: > 10000 nM
